ChEMBL document CHEMBL1148780, “Design and evaluation of naphthol- and carbazole-containing fluorescent sigma ligands as potential probes for receptor binding studies” (J Med Chem, 2007)

Assays:
[1] = molecular target: Sigma non-opioid intracellular receptor 1 (Cavia porcellus, UniProt Q60492); assay: Displacement of [3H]pentazocine from Sigma1 receptor in guinea pig brain membrane; type: cell membranes
[2] = Displacement of [3H]DTG from sigma2 receptor in Wistar rat liver membrane in presence of 1 uM […]; type: cell membranes
[3] = molecular target: T1, 3-beta-hydroxysteroid-Delta(8),Delta(7)-isomerase (Cavia porcellus, UniProt Q60490); assay: Displacement of [3H]emopamil from Delta-(8)-Delta-(7) sterol isomerase in guinea pig liver membrane; type: cell membranes
T1 sequence (Q60490 whole entry): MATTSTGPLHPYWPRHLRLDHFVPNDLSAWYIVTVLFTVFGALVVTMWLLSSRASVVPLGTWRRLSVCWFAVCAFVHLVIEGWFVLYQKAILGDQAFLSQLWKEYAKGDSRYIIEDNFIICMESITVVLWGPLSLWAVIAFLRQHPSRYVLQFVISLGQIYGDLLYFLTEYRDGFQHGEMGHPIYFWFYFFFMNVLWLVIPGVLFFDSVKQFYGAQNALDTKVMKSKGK

[4] = Selectivity for sigma1 receptor over sigma2 receptor
[5] = (§1) Binding affinity to sigma2 receptor in Wistar rat liver membrane; type: cell membranes
Rattus norvegicus = organism: Rattus norvegicus; assay: as §1; type: cell membranes

Sequence of Sigma non-opioid intracellular receptor 1 (Q60492 whole entry): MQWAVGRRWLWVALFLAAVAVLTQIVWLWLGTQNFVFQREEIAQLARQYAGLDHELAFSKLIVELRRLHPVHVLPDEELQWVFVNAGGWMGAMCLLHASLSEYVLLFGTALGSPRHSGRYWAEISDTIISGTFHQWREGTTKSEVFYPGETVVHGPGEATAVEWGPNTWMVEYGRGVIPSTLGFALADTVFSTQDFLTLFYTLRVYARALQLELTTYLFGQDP

| SMILES | Ki [1] [nM] | Ki [2] [nM] | Ki [3] [nM] | Ratio Ki [4] | Kd [5] [nM] | Bmax (Rattus norvegicus) [pmol/mg] |
| --- | --- | --- | --- | --- | --- | --- |
| CC1(C)CCCN(CCCc2cccc3ccc(O)cc23)C1 | 733 | 412 | 30 | 0.6 |  |  |
| COc1cccc2c(CCCN3CCN(C4CCCCC4)CC3)cccc12 |  | 9.24 | 4.51 |  |  |  |
| Cc1ccccc1NC(=N)Nc1ccccc1C [DITOLYLGUANIDINE] |  | 30.8 |  |  |  |  |
| CC1(C)CCCN(CCCc2cccc3cc(O)ccc23)C1 | 340 | 600 | 352 | 2 |  |  |
| CC1(C)CCCN(CCCCn2c3ccccc3c3ccccc32)C1 | 175 | 520 | 270 | 3 |  |  |
| COc1ccc2cccc(CCCN3CCN(C4CCCCC4)CC3)c2c1 | 0.9 | 8.27 | 42.4 | 9 |  |  |
| COc1ccc2c(CCCN3CCCC(C)(C)C3)cccc2c1 |  |  |  | 680 |  |  |
| Oc1ccc2c(CCCN3CCN(C4CCCCC4)CC3)cccc2c1 | 6.78 | 26.4 | 21.3 | 4 | 21.3 | 0.47 |

The remaining lines, values ahead:

| Ki [1] [nM] | Ki [2] [nM] | Ki [3] [nM] | Ratio Ki [4] | Kd [5] [nM] | Bmax (Rattus norvegicus) [pmol/mg] | SMILES |
| --- | --- | --- | --- | --- | --- | --- |
| 3.16 | 9.02 | 7.06 | 3 |  |  | COc1ccc2c(CCCN3CCN(C4CCCCC4)CC3)cccc2c1 |
| 5.48 | 11.8 | 55 | 2 |  |  | Oc1ccc2cccc(CCCN3CCN(C4CCCCC4)CC3)c2c1 |
| 138 | 117 | 24 | 0.8 |  |  | CC1(C)CCCN(CCCCCn2c3ccccc3c3ccccc32)C1 |
|  |  | 19.8 |  |  |  | CC(C(O)c1ccc(O)cc1)N1CCC(Cc2ccccc2)CC1 (racemic) [IFENPRODIL] |
| 2020 | 4480 | 345 | 2 |  |  | CC1(C)CCCN(CCCn2c3ccccc3c3ccccc32)C1 |
| 3450 | 12.6 | 79.9 | 0.004 |  |  | c1ccc2c(c1)c1ccccc1n2CCCN1CCN(C2CCCCC2)CC1 |
| 44.9 | 643 | 12.8 | 14 |  |  | COc1cccc2c(CCCN3CCCC(C)(C)C3)cccc12 |
| 115 | 672 | 4.12 | 6 |  |  | COc1ccc2cccc(CCCN3CCCC(C)(C)C3)c2c1 |
